Data taken from patent US20160152540A1, “NEW PROCESS FOR THE MAINTAINING OF A RATIO OF ISOMERS OF CAROTENOID COMPOUNDS” (DSM IP ASSETS B.V., priority 2013, published 2016).

Assay: Stability of the astaxanthin stereoisomer ratio (all-E form) in chloroform at 40° C., measured spectrophotometrically at 478 nm
Conditions: tempered at 40° C., stored, sampled periodically
Procedure: The solution was homogenized and the formulation was tempered at 40° C. The solution was stored and samples were taken periodically and the concentration of astaxanthin was measured spectrophotometrically at 478 nm.

In the case of `CC1=C(/C=C/C(C)=C/C=C/C(C)=C/C=C/C=C(C)/C=C/C=C(C)/C=C/C2=C(C)C(=O)[C@@H](O)CC2(C)C)C(C)(C)C[C@H](O)C1=O` [astaxanthin], the “stabilisation of the all-E-form / ratio of stereoisomers of astaxanthin (FIG. 1 and FIG. 2)” value is reported as “the ratio is deteriorating usually”.

With `CC(=O)[O-].[K+]` [CH3COOK, potassium acetate] the “stabilisation of the all-E-form / ratio of stereoisomers of astaxanthin (FIG. 1 and FIG. 2)” value was “stabilises the all-E-form better than K2CO3”.
